Experimental data taken from ChEMBL document CHEMBL1649249, “Antifungal activity of micafungin in serum” (Antimicrob Agents Chemother, 2009).
*1 amine or outer side, *2 acyl side, *3 side chain or, on linkers, in order; H or OH if unused. Where a SMILES comes first, the peptide text is derived from it. Bridges are numbered along the chain shown (N, C = ends). [ ]: non-standard residue; d: D form. The star is where a group is joined. hTyr(3S-OH,4S-OH,3'-OSO3H) = N[C@H](C(=O)O)[C@H](O)[C@@H](O)c1ccc(O)c(OS(=O)(=O)O)c1; Orn(4R-OH,5R-OH) = O=C([C@H](C[C@@H](O)[C@@H](O)N[*:3])N[*:1])[*:2]; Pro(3S-OH,4S-Me) = C[C@H]1CN[C@H](C(=O)O)[C@H]1O; X1 = CCCCCOc1ccc(-c2cc(-c3ccc(C(=O)*)cc3)no2)cc1; Gln(3R-OH) = NC(=O)C[C@@H](O)[C@H](N)C(=O)O; Hyp = O=C(O)[C@@H]1C[C@@H](O)CN1

Legend:
Candida albicans [1] = test: Antifungal activity against Candida albicans FP633 collected from peak serum sample on day 15 from patient with acute lymphoblastic leukemia at 1.2 mg/kg by disk diffusion method in presence of human serum; type: functional
[2] = Ratio of MIC for Candida albicans FP633 collected from trough serum sample on day 15 from patient with acute lymphoblastic leukemia at 1.2 mg/kg in presence of human serum to Cmax for patient with acute lymphoblastic leukemia at 1.2 mg/kg; type: functional
[3] = Ratio of MIC for Candida albicans FP633 collected from peak serum sample on day 12 from patient with malignant lymphoma at 2.6 mg/kg in presence of human serum to Cmax for patient with malignant lymphoma at 2.6 mg/kg; type: functional
Candida albicans [4] = test: Antifungal activity against Candida albicans FP633 collected from peak serum sample on day 15 from patient with acute lymphoblastic leukemia at 1.2 mg/kg by disk diffusion method; type: functional
Candida albicans [5] = test: Antifungal activity against Candida albicans FP633 collected from peak serum sample on day 43 patient with malignant lymphoma at 4.8 mg/kg by disk diffusion method; type: functional
[6] = Cmax in patient with malignant lymphoma infected with Candida albicans FP633 at 4.8 mg/kg administered once daily after 43 days by HPLC; type: ADME, organism-based; set-up: dose 4.8 mg/kg; conditions: human, in vivo
Candida albicans [7] = test: Antifungal activity against Candida albicans FP633 collected from trough serum sample on day 15 from patient with acute lymphoblastic leukemia at 1.2 mg/kg by disk diffusion method; type: functional
[8] = Ratio of MIC for Candida albicans FP633 collected from peak serum sample on day 17 from patient with acute lymphoblastic leukemia at 1.2 mg/kg to Cmax for patient with acute lymphoblastic leukemia at 1.2 mg/kg; type: functional
Candida albicans [9] = test: Antifungal activity against Candida albicans FP633 collected from trough serum sample on day 8 from patient with acute myeloid leukemia at 1.1 mg/kg by disk diffusion method in presence of human serum; type: functional
Candida albicans [10] = test: Antifungal activity against Candida albicans FP633 collected from peak serum sample on day 15 from patient with acute myeloid leukemia at 1.1 mg/kg by disk diffusion method; type: functional
[11] = Ratio of MIC for Candida albicans FP633 collected from trough serum sample on day 15 from patient with acute lymphoblastic leukemia at 1.2 mg/kg to Cmax for patient with acute lymphoblastic leukemia at 1.2 mg/kg; type: functional
[12] = Cmax in patient with acute myeloid leukemia infected with Candida albicans FP633 at 1.1 mg/kg administered once daily after 15 days by HPLC; type: ADME, organism-based; set-up: dose 1.1 mg/kg; conditions: human, in vivo
Candida albicans [13] = test: Antifungal activity against Candida albicans FP633 collected from trough serum sample on day 8 from patient with acute myeloid leukemia at 1.1 mg/kg by disk diffusion method; type: functional
Candida albicans [14] = test: Antifungal activity against Candida albicans FP633 collected from trough serum sample on day 15 from patient with acute lymphoblastic leukemia at 1.2 mg/kg by disk diffusion method in presence of human serum; type: functional
[15] = Cmax in patient with malignant lymphoma infected with Candida albicans FP633 at 5.8 mg/kg administered once daily after 8 days by HPLC; type: ADME, organism-based; set-up: dose 5.8 mg/kg; conditions: human, in vivo
[16] = Cmax in patient with malignant lymphoma infected with Candida albicans FP633 at 3.9 mg/kg administered once daily after 10 days by HPLC; type: ADME, organism-based; set-up: dose 3.9 mg/kg; conditions: human, in vivo
[17] = Ratio of MIC for Candida albicans FP633 collected from peak serum sample on day 12 from patient with malignant lymphoma at 2.6 mg/kg to Cmax for patient with malignant lymphoma at 2.6 mg/kg; type: functional
[18] = Ratio of MIC for Candida albicans FP633 collected from trough serum sample on day 15 from patient with acute myeloid leukemia at 1.1 mg/kg in presence of human serum to Cmax for patient with acute myeloid leukemia at 1.1 mg/kg; type: functional
[19] = Ratio of MIC for Candida albicans FP633 collected from trough serum sample on day 15 from patient with acute myeloid leukemia at 1.1 mg/kg to Cmax for patient with acute myeloid leukemia at 1.1 mg/kg; type: functional
[20] = Ratio of MIC for Candida albicans FP633 collected from peak serum sample on day 43 from patient with malignant lymphoma at 4.8 mg/kg in presence of human serum to Cmax for patient with malignant lymphoma at 4.8 mg/kg; type: functional
[21] = Ratio of MIC for Candida albicans FP633 collected from peak serum sample on day 15 from patient with acute myeloid leukemia at 1.1 mg/kg in presence of human serum to Cmax for patient with acute myeloid leukemia at 1.1 mg/kg; type: functional
[22] = Ratio of MIC for Candida albicans FP633 collected from peak serum sample on day 17 from patient with acute lymphoblastic leukemia at 1.2 mg/kg in presence of human serum to Cmax for patient with acute lymphoblastic leukemia at 1.2 mg/kg; type: functional
[23] = Ratio of MIC for Candida albicans FP633 collected from peak serum sample on day 15 from patient with acute lymphoblastic leukemia at 1.2 mg/kg in presence of human serum to Cmax for patient with acute lymphoblastic leukemia at 1.2 mg/kg; type: functional
[24] = Ratio of MIC for Candida albicans FP633 collected from peak serum sample on day 43 from patient with malignant lymphoma at 4.8 mg/kg to Cmax for patient with malignant lymphoma at 4.8 mg/kg; type: functional
[25] = Ratio of MIC for Candida albicans FP633 collected from peak serum sample on day 43 from patient with myelodysplastic syndrome at 3.9 mg/kg in presence of human serum to Cmax for patient with myelodysplastic syndrome at 3.9 mg/kg; type: functional
Candida albicans [26] = test: Antifungal activity against Candida albicans FP633 collected from trough serum sample on day 15 from patient with acute myeloid leukemia at 1.1 mg/kg by disk diffusion method in presence of human serum; type: functional
Candida albicans [27] = test: Antifungal activity against Candida albicans FP633 collected from peak serum sample on day 15 from patient with acute myeloid leukemia at 1.1 mg/kg by disk diffusion method in presence of human serum; type: functional
[28] = Ratio of MIC for Candida albicans FP633 collected from trough serum sample on day 8 from patient with acute myeloid leukemia at 1.1 mg/kg to Cmax for patient with acute myeloid leukemia at 1.1 mg/kg; type: functional
Candida albicans [29] = test: Antifungal activity against Candida albicans FP633 collected from peak serum sample on day 8 from patient with acute myeloid leukemia at 1.1 mg/kg by disk diffusion method in presence of human serum; type: functional
[30] = Cmax in patient with acute myeloid leukemia infected with Candida albicans FP633 at 1.1 mg/kg administered once daily after 8 days by HPLC; type: ADME, organism-based; set-up: dose 1.1 mg/kg; conditions: human, in vivo
[31] = Cmax in patient with acute lymphoblastic leukemia infected with Candida albicans FP633 at 1.2 mg/kg administered once daily after 17 days by HPLC; type: ADME, organism-based; set-up: dose 1.2 mg/kg; conditions: human, in vivo
Serum = test: Protein binding in human serum; type: ADME, cell-free
[32] = Ratio of MIC for Candida albicans FP633 collected from peak serum sample on day 8 from patient with acute myeloid leukemia at 1.1 mg/kg in presence of human serum to Cmax for patient with acute myeloid leukemia at 1.1 mg/kg; type: functional
[33] = Ratio of MIC for Candida albicans FP633 collected from peak serum sample on day 15 from patient with acute myeloid leukemia at 1.1 mg/kg to Cmax for patient with acute myeloid leukemia at 1.1 mg/kg; type: functional
[34] = Ratio of MIC for Candida albicans FP633 collected from peak serum sample on day 15 from patient with acute lymphoblastic leukemia at 1.2 mg/kg to Cmax for patient with acute lymphoblastic leukemia at 1.2 mg/kg; type: functional
Candida albicans [35] = test: Antifungal activity against Candida albicans FP633 collected from peak serum sample on day 43 from patient with myelodysplastic syndrome at 1.4 mg/kg by disk diffusion method; type: functional
[36] = Cmax in patient with myelodysplastic syndrome infected with Candida albicans FP633 at 1.4 mg/kg administered once daily after 45 days by HPLC; type: ADME, organism-based; set-up: dose 1.4 mg/kg; conditions: human, in vivo
Candida albicans [37] = test: Antifungal activity against Candida albicans FP633 collected from peak serum sample on day 12 patient with malignant lymphoma at 2.6 mg/kg by disk diffusion method in presence of human serum; type: functional
[38] = Ratio of MIC for Candida albicans FP633 collected from peak serum sample on day 8 from patient with acute myeloid leukemia at 1.1 mg/kg to Cmax for patient with acute myeloid leukemia at 1.1 mg/kg; type: functional
Candida albicans [39] = test: Antifungal activity against Candida albicans FP633 collected from peak serum sample on day 12 patient with malignant lymphoma at 2.6 mg/kg by disk diffusion method; type: functional
[40] = Ratio of MIC for Candida albicans FP633 collected from trough serum sample on day 8 from patient with acute myeloid leukemia at 1.1 mg/kg in presence of human serum to Cmax for patient with acute myeloid leukemia at 1.1 mg/kg; type: functional
Candida albicans [41] = test: Antifungal activity against Candida albicans FP633 collected from peak serum sample on day 43 patient with malignant lymphoma at 4.8 mg/kg by disk diffusion method in presence of human serum; type: functional
[42] = Cmax in patient with acute lymphoblastic leukemia infected with Candida albicans FP633 at 1.2 mg/kg administered once daily after 15 days by HPLC; type: ADME, organism-based; set-up: dose 1.2 mg/kg; conditions: human, in vivo
[43] = Cmax in patient with malignant lymphoma infected with Candida albicans FP633 at 2.6 mg/kg administered once daily after 12 days by HPLC; type: ADME, organism-based; set-up: dose 2.6 mg/kg; conditions: human, in vivo
Candida albicans [44] = test: Antifungal activity against Candida albicans FP633 collected from peak serum sample on day 17 from patient with acute lymphoblastic leukemia at 1.2 mg/kg by disk diffusion method; type: functional
Candida albicans [45] = test: Antifungal activity against Candida albicans FP633 collected from peak serum sample on day 8 from patient with acute myeloid leukemia at 1.1 mg/kg by disk diffusion method; type: functional
Candida albicans [46] = test: Antimicrobial activity against Candida albicans FP633 in presence of heat inactivated mouse serum; type: functional
[47] = Ratio of MIC for Candida albicans FP633 collected from peak serum sample on day 43 from patient with myelodysplastic syndrome at 3.9 mg/kg to Cmax for patient with myelodysplastic syndrome at 3.9 mg/kg; type: functional
Candida albicans [48] = test: Antifungal activity against Candida albicans FP633 collected from peak serum sample on day 17 from patient with acute lymphoblastic leukemia at 1.2 mg/kg by disk diffusion method in presence of human serum; type: functional
Candida albicans [49] = test: Antifungal activity against Candida albicans FP633 collected from trough serum sample on day 15 from patient with acute myeloid leukemia at 1.1 mg/kg by disk diffusion method; type: functional
Candida albicans [50] = test: Antifungal activity against Candida albicans FP633 collected from peak serum sample on day 43 from patient with myelodysplastic syndrome at 1.4 mg/kg by disk diffusion method in presence of human serum; type: functional

CCCCCOc1ccc(-c2cc(-c3ccc(C(=O)N[C@H]4C[C@@H](O)[C@@H](O)NC(=O)[C@@H]5[C@@H](O)[C@@H](C)CN5C(=O)[C@H]([C@H](O)CC(N)=O)NC(=O)[C@H]([C@H](O)[C@@H](O)c5ccc(O)c(OS(=O)(=O)O)c5)NC(=O)[C@@H]5C[C@@H](O)CN5C(=O)[C@H]([C@@H](C)O)NC4=O)cc3)no2)cc1 [MICAFUNGIN] (X1-[Orn(4R-OH,5R-OH)]T[Hyp][hTyr(3S-OH,4S-OH,3'-OSO3H)][Gln(3R-OH)][Pro(3S-OH,4S-Me)]; lactam 1-C)
Activity (Candida albicans [1]): 7 µg/mL | Ratio [2]: 71 | Ratio [3]: 135 | Activity (Candida albicans [4]): 3.3 µg/mL | Activity (Candida albicans [5]): 14.1 µg/mL | Cmax [6]: 37100 ng/mL | Activity (Candida albicans [7]): 0.9 µg/mL | Ratio [8]: 44 | Activity (Candida albicans [9]): 2.1 µg/mL | Activity (Candida albicans [10]): 2.5 µg/mL | Ratio [11]: 40 | Cmax [12]: 5600 ng/mL | Activity (Candida albicans [13]): 1.1 µg/mL | Activity (Candida albicans [14]): 1.6 µg/mL | Cmax [15]: 33600 ng/mL | Cmax [16]: 34200 ng/mL | Ratio [17]: 37 | Ratio [18]: 58 | Ratio [19]: 32 | Ratio [20]: 94 | Ratio [21]: 92 | Ratio [22]: 91 | Ratio [23]: 109 | Ratio [24]: 38 | Ratio [25]: 63 | Activity (Candida albicans [26]): 1.7 µg/mL | Activity (Candida albicans [27]): 5.2 µg/mL | Ratio [28]: 42 | Activity (Candida albicans [29]): 8.1 µg/mL | Cmax [30]: 8400 ng/mL | Cmax [31]: 6500 ng/mL | PB (Serum): 99.8% | Ratio [32]: 96 | Ratio [33]: 45 | Ratio [34]: 52 | Activity (Candida albicans [35]): 2.5 µg/mL | Cmax [36]: 6700 ng/mL | Activity (Candida albicans [37]): 22.1 µg/mL | Ratio [38]: 42 | Activity (Candida albicans [39]): 6 µg/mL | Ratio [40]: 78 | Activity (Candida albicans [41]): 34.8 µg/mL | Cmax [42]: 6400 ng/mL | Cmax [43]: 16400 ng/mL | Activity (Candida albicans [44]): 2.9 µg/mL | Activity (Candida albicans [45]): 3.8 µg/mL | MIC (Candida albicans [46]): 1 µg/mL | Ratio [47]: 38 | Activity (Candida albicans [48]): 5.9 µg/mL | Activity (Candida albicans [49]): 1 µg/mL | Activity (Candida albicans [50]): 4.2 µg/mL
